Source: patent publication US7541368B2, “Pyrazoles as inhibitors of tumor necrosis factor” (Aventis Pharmaceuticals Inc., priority 2003, dated 2009)
pIC50: −log10 of the molar value.

tested on: TNF-alpha release in THP-1 cells; experiment: LPS-induced TNF-alpha release in THP-1 cells; assay type: cell-based; conditions: Homo sapiens, THP-1, LPS-stimulated THP-1 cells; read-out: 50% inhibition in the LPS-induced TNF-alpha release in THP-1 cells assay at concentrations within the range
Experimental: The effects of compounds on TNF-alpha production by lipopolysaccharide (LPS)-stimulated […] monocytes were examined as follows.
Undifferentiated THP-1 cells were maintained in RPMI 1640 with Glutamax I containing β-mercaptoethananol (50 μM) and foetal calf serum (FCS-10%) at densities of about 1×10^6 cells per ml. For incubations without and with test reagents, cells were seeded at the indicated densities under serum-deprived (1% FCS) conditions. Compounds were dissolved in dimethylsulfoxide (DMSO-100%) and incubated with the cells to give a fmal DMSO concentration of 0.3%. Control and untreated cell samples were incubated with DMSO (0.3%).
THP-1 cells (1×10 ^6 cells/ml, total volume 150 μl) in culture medium were incubated for 1 hour (5% CO2, 37° C.) with fresh medium containing compounds or vehicle (0.1-0.3% dimethylsulfoxide). LPS (20 μg/ml) was then added to the cells and the incubation continued for a fuirther 18 hours. Cell supernatants were removed into 96 well plates for storage at −20° C.
TNF-alpha concentrations in cell supernatants were quantified by sandwich ELISA. Briefly, ELISA plates were coated overnight with 2 μg/ml of mouse anti-human TNF-alpha antibody in bicarbonate buffer (pH 9.9). After washing the wells with wash buffer (0.05% (v/v) Tween in PBS)and blocking unoccupied sites (1% BSA in wash buffer), monocyte supernatant samples or human recombinant TNF-alpha standards were added into the corresponding wells of the ELISA plate at 1:10 dilution. Biotinylated rabbit polyclonal anti-human TNF-alpha antibody (3 μg/ml) was used as the second antibody and streptavidin-horseradish peroxidase was used as the detection antibody. The peroxidase substrate is 3,3′,5,5′-tetramethylbenzidine (TMB) in the presence of hydrogen peroxide.
TNFα concentrations in supernatants from control and LPS-stimulated monocyte incubations were calculated by interpolation from a standard (log/log) curve (0.125-16 ng/ml) fitted by Excel Fit using the Activity Base software. Compounds were tested within the concentration range of 1×10^−9M to 1×10^−6M.

pIC50, 6.30 to 8.00:
COc1ccccc1CCC(=O)N1CCC(Cc2cccc(NC(=O)Nc3cc(C(C)(C)C)nn3-c3ccc(C)cc3)c2)CC1 [Compound A82, 1-(5-tert-Butyl-2-p-tolyl-2H-pyrazol-3-yl)-3-(3-{1-[3-(2-methoxy-phenyl)-propionyl]-piperidin-4-ylmethyl}-phenyl)-urea]
Cc1ccc(-n2nc(C(C)(C)C)cc2NC(=O)Nc2cccc(CC3CCN(C(=O)CCc4cccs4)CC3)c2)cc1 [Compound A83, 1-(5-tert-Butyl-2-p-tolyl-2H-pyrazol-3-yl)-3-{3-[1-(3-thiophen-2-yl-propionyl)-piperidin-4-ylmethyl]-phenyl}-urea]
Cc1ccc(-n2nc(C(C)(C)C)cc2NC(=O)Nc2cccc(CC3CCN(C(=O)c4ccoc4)CC3)c2)cc1 [Compound A92, 1-(5-tert-Butyl-2-p-tolyl-2H-pyrazol-3-yl)-3-{3-[1-(furan-3-carbonyl)-piperidin-4-ylmethyl]-phenyl}-urea]
Cc1ccc(-n2nc(C(C)(C)C)cc2NC(=O)Nc2cccc(CC3CCN(C(=O)c4occc4C)CC3)c2)cc1 [Compound A95, 1-(5-tert-Butyl-2-p-tolyl-2H-pyrazol-3-yl)-3-{3-[1-(3-methyl-furan-2-carbonyl)-piperidin-4-ylmethyl]-phenyl}-urea]
Cc1ccc(-n2nc(C(C)(C)C)cc2NC(=O)Nc2cccc(CC3CCN(C(=O)c4ccsc4)CC3)c2)cc1 [Compound A99, 1-(5-tert-Butyl-2-p-tolyl-2H-pyrazol-3-yl)-3-{3-[1-(thiophene-3-carbonyl)-piperidin-4-ylmethyl]-phenyl}-urea]
Cc1ccc(-n2nc(C(C)(C)C)cc2NC(=O)Nc2cccc(CC3CCN(C(=O)C4=Cc5sccc5CC4)CC3)c2)cc1 [Compound A102, 1-(5-tert-Butyl-2-p-tolyl-2H-pyrazol-3-yl)-3-{3-[1-(4,5-dihydro-benzo[b]thiophene-6-carbonyl)-piperidin-4-ylmethyl]-phenyl}-urea]
Cc1ccc(-n2nc(C(C)(C)C)cc2NC(=O)Nc2cccc(CC3CCN(C(=O)c4ccc(-c5cnco5)cc4)CC3)c2)cc1 [Compound A106, 1-(5-tert-Butyl-2-p-tolyl-2H-pyrazol-3-yl)-3-{3-[1-(4-oxazol-5-yl-benzoyl)-piperidin-4-ylmethyl]-phenyl}-urea]
Cc1ccc(-n2nc(C(C)(C)C)cc2NC(=O)Nc2cccc(CC3CCN(C(=O)c4ccc(OC(F)F)cc4)CC3)c2)cc1 [Compound A111, 1-(5-tert-Butyl-2-p-tolyl-2H-pyrazol-3-yl)-3-{3-[1-(4-difluoromethoxy-benzoyl)-piperidin-4-ylmethyl]-phenyl}-urea]
Cc1ccc(-n2nc(C(C)(C)C)cc2NC(=O)Nc2cccc(CC3CCN(C(=O)c4ccc(N)c(OC(F)(F)F)c4)CC3)c2)cc1 [Compound A114, 1-{3-[1-(4-Amino-3-trifluoromethoxy-benzoyl)-piperidin-4-ylmethyl]-phenyl}-3-(5-tert-butyl-2-p-tolyl-2H-pyrazol-3-yl)-urea]
Cc1ccc(-n2nc(C(C)(C)C)cc2NC(=O)Nc2cccc(CC3CCN(C(=O)c4ccc(CO)cc4)CC3)c2)cc1 [Compound A118, 1-(5-tert-Butyl-2-p-tolyl-2H-pyrazol-3-yl)-3-{3-[1-(4-hydroxymethyl-benzoyl)-piperidin-4-ylmethyl]-phenyl}-urea]
COc1ccc(OCC(=O)N2CCC(Cc3cccc(NC(=O)Nc4cc(C(C)(C)C)nn4-c4ccc(C)cc4)c3)CC2)cc1 [Compound A121, 1-(5-tert-Butyl-2-p-tolyl-2H-pyrazol-3-yl)-3-(3-{1-[2-(4-methoxy-phenoxy)-acetyl]-piperidin-4-ylmethyl}-phenyl)-urea]
COc1ccc(CC(=O)N2CCC(Cc3cccc(NC(=O)Nc4cc(C(C)(C)C)nn4-c4ccc(C)cc4)c3)CC2)cc1 [Compound A122, 1-(5-tert-Butyl-2-p-tolyl-2H-pyrazol-3-yl)-3-(3-{1-[2-(4-methoxy-phenyl)-acetyl]-piperidin-4-ylmethyl}-phenyl)-urea]
Cc1ccc(-n2nc(C(C)(C)C)cc2NC(=O)Nc2cccc(CC3CCN(C(=O)c4cnccc4C(F)(F)F)CC3)c2)cc1 [Compound A126, 1-(5-tert-Butyl-2-p-tolyl-2H-pyrazol-3-yl)-3-{3-[1-(4-trifluoromethyl-pyridine-3-carbonyl)-piperidin-4-ylmethyl]-phenyl}-urea]
Cc1ccc(-n2nc(C(C)(C)C)cc2NC(=O)Nc2cccc(CC3CCN(C(=O)c4ccc(Cl)s4)CC3)c2)cc1 [Compound A131, 1-(5-tert-Butyl-2-p-tolyl-2H-pyrazol-3-yl)-3-{3-[1-(5-chloro-thiophene-2-carbonyl)-piperidin-4-ylmethyl]-phenyl}-urea]
COc1ccc(OCC(F)(F)F)c(C(=O)N2CCC(Cc3cccc(NC(=O)Nc4cc(C(C)(C)C)nn4-c4ccc(C)cc4)c3)CC2)c1 [Compound A132, 1-(5-tert-Butyl-2-p-tolyl-2H-pyrazol-3-yl)-3-(3-{1-[5-methoxy-2-(2,2,2-trifluoro-ethoxy)-benzoyl]-piperidin-4-ylmethyl}-phenyl)-urea]
Cc1ccc(-n2nc(C(C)(C)C)cc2NC(=O)Nc2cccc(CC3CCN(C(=O)c4cnc(C)cn4)CC3)c2)cc1 [Compound A140, 1-(5-tert-Butyl-2-p-tolyl-2H-pyrazol-3-yl)-3-{3-[1-(5-methyl-pyrazine-2-carbonyl)-piperidin-4-ylmethyl]-phenyl}-urea]
Cc1ccc(-n2nc(C(C)(C)C)cc2NC(=O)Nc2cccc(CC3CCN(C(=O)c4ccc(N)nc4)CC3)c2)cc1 [Compound A144, 1-{3-[1-(6-Amino-pyridine-3-carbonyl)-piperidin-4-ylmethyl]-phenyl}-3-(5-tert-butyl-2-p-tolyl-2H-pyrazol-3-yl)-urea]
Cc1ccc(-n2nc(C(C)(C)C)cc2NC(=O)Nc2cccc(CC3CCN(C(=O)c4cccc(C)n4)CC3)c2)cc1 [Compound A146, 1-(5-tert-Butyl-2-p-tolyl-2H-pyrazol-3-yl)-3-{3-[1-(6-methyl-pyridine-2-carbonyl)-piperidin-4-ylmethyl]-phenyl}-urea]
CC(=O)OCc1ccc(C(=O)N2CCC(Cc3cccc(NC(=O)Nc4cc(C(C)(C)C)nn4-c4ccc(C)cc4)c3)CC2)cc1 [Compound A148, Acetic acid 4-(4-{3-[3-(5-tert-butyl-2-p-tolyl-2H-pyrazol-3-yl)-ureido]-benzyl}-piperidine-1-carbonyl)-benzyl ester]
Cc1ccc(-n2nc(C(C)(C)C)cc2NC(=O)Nc2cccc(CC3CCN(C(=O)c4ccc5ncsc5c4)CC3)c2)cc1 [Compound A150, 1-{3-[1-(Benzothiazole-6-carbonyl)-piperidin-4-ylmethyl]-phenyl}-3-(5-tert-butyl-2-p-tolyl-2H-pyrazol-3-yl)-urea]
Cc1ccc(-n2nc(C(C)(C)C)cc2NC(=O)Nc2cccc(CC3CCN(C(=O)c4coc5c4C(=O)CCC5)CC3)c2)cc1 [Compound A154, 1-(5-tert-Butyl-2-p-tolyl-2H-pyrazol-3-yl)-3-{3-[1-(4-oxo-4,5,6,7-tetrahydro-benzofuran-3-carbonyl)-piperidin-4-ylmethyl]-phenyl}-urea]
Cc1ccc(-n2nc(C(C)(C)C)cc2NC(=O)Nc2cccc(CC3CCN(C(=O)c4n[nH]c5ccccc45)CC3)c2)cc1 [Compound A167, 1-(5-tert-Butyl-2-p-tolyl-2H-pyrazol-3-yl)-3-{3-[1-(1H-indazole-3-carbonyl)-piperidin-4-ylmethyl]-phenyl}-urea]
Cc1ccc(-n2nc(C(C)(C)C)cc2NC(=O)Nc2cccc(CC3CCN(C(=O)Cc4c[nH]c5ccccc45)CC3)c2)cc1 [Compound A168, 1-(5-tert-Butyl-2-p-tolyl-2H-pyrazol-3-yl)-3-{3-[1-(2-1H-indol-3-yl-acetyl)-piperidin-4-ylmethyl]-phenyl}-urea]
Cc1ccc(-n2nc(C(C)(C)C)cc2NC(=O)Nc2cccc(CC3CCN(C(=O)Cc4ccccc4C)CC3)c2)cc1 [Compound A182, 1-(5-tert-Butyl-2-p-tolyl-2H-pyrazol-3-yl)-3-{3-[1-(2-o-tolyl-acetyl)-piperidin-4-ylmethyl]-phenyl}-urea]
Cc1ccc(-n2nc(C(C)(C)C)cc2NC(=O)Nc2cccc(CC3CCN(C(=O)c4ccc5ccccc5n4)CC3)c2)cc1 [Compound A184, 1-(5-tert-Butyl-2-p-tolyl-2H-pyrazol-3-yl)-3-{3-[1-(quinoline-2-carbonyl)-piperidin-4-ylmethyl]-phenyl}-urea]
Cc1ccc(-n2nc(C(C)(C)C)cc2NC(=O)Nc2cccc(CC3CCN(C(=O)c4ccnc5ccccc45)CC3)c2)cc1 [Compound A186, 1-(5-tert-Butyl-2-p-tolyl-2H-pyrazol-3-yl)-3-{3-[1-(quinoline-4-carbonyl)-piperidin-4-ylmethyl]-phenyl}-urea]
